Measurements as given in patent publication US8916540B2, “Antibiotic compositions and related screening methods” (Academia Sinica, priority 2008, dated 2014).
Like-named read-outs stand apart in the source and are kept apart here.

Experiments:
Helicobacter pylori = conditions: literature citation 29; cited from earlier work
Shigella flexneri [1] = conditions: literature citation 28; cited from earlier work
Staphylococcus aureus [2] = conditions: literature citation 10; cited from earlier work
Salmonella enterica [3] = assay: Minimal inhibitory concentration (MIC) determination; assay type: cell-based
Enterococcus faecalis [4] = conditions: literature citation 31; cited from earlier work
[5] = target: T1, E. coli PBP1b TG+TP (residues 88-844) (Escherichia coli, UniProt P02919); assay: SPR moenomycin binding to truncated PBP1b variant; conditions: PBP without the transmembrane domain
T1 construct: TG+TP (residues 88-844); His tag (implied by nickel chelation chromatography); made in house; host or cells: E. coli (pET vectors)
T1 sequence (P02919 88-844): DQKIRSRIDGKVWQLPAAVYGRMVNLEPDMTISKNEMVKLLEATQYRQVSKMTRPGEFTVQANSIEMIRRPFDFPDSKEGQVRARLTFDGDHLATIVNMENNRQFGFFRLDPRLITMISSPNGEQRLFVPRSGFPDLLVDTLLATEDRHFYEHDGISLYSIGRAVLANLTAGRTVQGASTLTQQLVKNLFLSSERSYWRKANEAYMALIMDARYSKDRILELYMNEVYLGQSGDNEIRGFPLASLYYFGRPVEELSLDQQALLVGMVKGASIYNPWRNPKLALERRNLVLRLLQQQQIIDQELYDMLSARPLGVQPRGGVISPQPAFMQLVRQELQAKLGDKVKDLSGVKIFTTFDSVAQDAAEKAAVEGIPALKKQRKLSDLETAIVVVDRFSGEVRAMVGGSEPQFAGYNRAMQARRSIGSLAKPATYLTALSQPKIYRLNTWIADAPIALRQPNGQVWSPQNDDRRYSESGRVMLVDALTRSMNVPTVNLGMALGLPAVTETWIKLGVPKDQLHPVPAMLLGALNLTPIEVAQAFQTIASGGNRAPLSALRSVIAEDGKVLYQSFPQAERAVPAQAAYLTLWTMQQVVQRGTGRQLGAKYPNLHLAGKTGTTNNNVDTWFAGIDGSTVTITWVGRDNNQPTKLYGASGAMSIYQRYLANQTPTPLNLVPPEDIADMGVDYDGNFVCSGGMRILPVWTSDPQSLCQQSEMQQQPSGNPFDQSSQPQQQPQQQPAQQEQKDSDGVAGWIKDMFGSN
Description: . Five E. coli PBP1b variants were expressed and purified: 1) full-length protein containing transmembrane, transglycosylase and transpeptidase domains (TM+TG+TP), 2) TG+TP, 3) TM+TG, 4) TG, and 5) TP (FIG. 1B).
. FIG. 1(B) is a schematic representation of the PBP variants used for moenomycin binding studies. The full-length PBP (TM+TG+TP) contains amino acid residues 1-844 of the E. coli PBP1b P02919. TG+TP (residues 88-844), TM+TG (residues 1-409), TG (residues 195-409), and TP (residues 444-736) are truncated variants with the part of the full-length PBP1b. The moenomycin binding constant (KD) for these variants were determined using SPR.
After immobilization of the target proteins on the sensor chip, different concentrations of moenomycin were passed through the surface and the binding affinities were determined. […].
Purified PBP and its variants were immobilized onto CM3 chip (GE healthcare, Uppsala, Sweden) to about 1,500˜2,000 RU via amine-coupling method. […]. Immobilization and data collection were performed with BIAcore T100 (GE Healthcare, Uppsala, Sweden) at 25° C.

Escherichia coli [6] = assay: Minimal inhibitory concentration (MIC) determination; assay type: cell-based
Escherichia coli [7] = conditions: literature citation 28; cited from earlier work
Salmonella enterica [8] = conditions: literature citation 38; cited from earlier work
Klebsiella pneumoniae [9] = conditions: literature citation 28; cited from earlier work
Shigella flexneri [10] = assay: Minimal inhibitory concentration (MIC) determination; assay type: cell-based
Neisseria gonorrhoeae = conditions: literature citation 28; cited from earlier work
Bordetella pertussis = assay: Minimal inhibitory concentration (MIC) determination; assay type: cell-based
Pseudomonas aeruginosa = assay: as above; assay type: cell-based
[11] = target: PBP1b from Citrobacter freundii; assay: SPR moenomycin binding to immobilized full-length PBP; conditions: steady-state affinity, average values, read-out: SPR_KD
Bacillus subtilis [12] = assay: Minimal inhibitory concentration (MIC) determination; assay type: cell-based
Protocol: (§1) The minimal inhibitory concentration (MIC) of tested compounds was determined following the NCCLS standard. The experiments were conducted in 96-well microtiter plates using two-fold dilutions in Muller-Hilton broth with (Streptococcus pneumonia) or without blood (Bacillus subtilis, Enterococcus faecalis, Staphylococcus aureus). Exponentially growing cells at 5×10^5 cells/ml were incubated with test compounds at various concentrations.

Streptococcus pneumoniae = assay: as above; assay type: cell-based
Protocol: as §1

Staphylococcus aureus [13] = assay: as above; assay type: cell-based
Protocol: as §1

Enterococcus faecalis [14] = assay: as above; assay type: cell-based
Protocol: as §1

Bacillus subtilis [15] = conditions: literature citation 30; cited from earlier work
Clostridium difficile = conditions: literature citation 30; cited from earlier work
Enterococcus faecium = conditions: literature citation 10; cited from earlier work
Klebsiella pneumoniae [16] = assay: Minimal inhibitory concentration (MIC) determination; assay type: cell-based

Moenomycin A [Compound 1]
Reported values MIC (Helicobacter pylori): 1.3 µM | Reported values MIC (Shigella flexneri [1]): 27.5 to 110 µM | Reported values MIC (Staphylococcus aureus [2]): 0.02 to 0.12 µM | MIC (Salmonella enterica [3]): 160 µM | Reported values MIC (Enterococcus faecalis [4]): 0.1 µM | moenomycin binding activity of TG+TP variant relative to full-length PBP1b (fold lower) [5]: about 5 fold | moenomycin binding activity of TG+TP variant relative to full-length PBP1b (fold lower) ([5]; listed as Moe A): decreased five-fold | MIC (Escherichia coli [6]): 80 µM | Reported values MIC (Escherichia coli [7]): 55 to 110 µM | Reported values MIC (Salmonella enterica [8]): 13.75 to 110 µM | Reported values MIC (Klebsiella pneumoniae [9]): 13.75 to 27.5 µM | MIC (Shigella flexneri [10]): 40 µM | Reported values MIC (Neisseria gonorrhoeae): 1.69 µM | MIC (Bordetella pertussis): 0.011 to 0.021 µM | MIC (Pseudomonas aeruginosa): 40 µM | Kd [11]: 728 nM | MIC (Bacillus subtilis [12]; B. subtilis ATCC23857, Muller-Hilton broth, 18 h to 24 h, 37° C., read-out: MIC B. subtilis (ATCC23857)): 0.33 µM | MIC (Bacillus subtilis [12]; Bacillus subtilis (Table 1)): 0.3 to 0.6 µM | MIC (Streptococcus pneumoniae; S. pneumoniae ATCC49619, Muller-Hilton broth with blood, 18 h to 24 h, 37° C., read-out: MIC S. pneumoniae (ATCC49619)): 0.33 µM | MIC (Streptococcus pneumoniae; Streptococcus pneumoniae (Table 1)): 0.625 µM | MIC (Staphylococcus aureus [13]; S. aureus ATCC29213, Muller-Hilton broth, 18 h to 24 h, 37° C., read-out: MIC S. aureus (ATCC29213)): <0.01 µM | MIC (Staphylococcus aureus [13]; Staphylococcus aureus (Table 1)): 0.075 µM | MIC (Enterococcus faecalis [14]; E. faecalis ATCC29212, Muller-Hilton broth, 18 h to 24 h, 37° C., read-out: MIC E. faecalis (ATCC29212)): 0.04 µM | MIC (Enterococcus faecalis [14]; Enterococcus faecalis (Table 1)): 0.075 to 0.3 µM | Reported values MIC (Bacillus subtilis [15]): 0.07 to 0.43 µM | Reported values MIC (Clostridium difficile): 220 to 440 µM | Reported values MIC (Enterococcus faecium): >40.5 µM | MIC (Klebsiella pneumoniae [16]): 80 µM
